According to article PMC3183052, “Immunoprotectivity of HLA-A2 CTL Peptides Derived from Respiratory Syncytial Virus Fusion Protein in HLA-A2 Transgenic Mouse” (PLoS ONE, 2011):

What was measured:
splenocytic CD4+ T cells = experiment: CFSE proliferation of CD4+ T cells after in vitro peptide restimulation; type: cell-based, mouse; settings: mice immunized s.c. twice with 50 µg peptide in IFA; splenocytes restimulated with 10 µg/mL peptide for 8 days
Experimental: (§1) To screen the immunodominance of epitopic peptide in the induction of RSV-F specific Th1/Th2 expression, HLA-A*0201 transgenic C57BL/6 mice were anesthetized with isoflurane and immunized with 1×10^7 pfu/50 µL of rAd-F0 or rAd-LacZ or 1×10^4 live RSV B1 via the intranasal (i.n.) route. Twenty days later, the mice were given booster immunization i.n. with the same dose. After 10 days of boost, mice were sacrificed and splenocytes were isolated for the cytokine ELISPOT assay. […] Mice body weight was monitored daily.
(§2) The splenocytes were isolated, labeled with 5-(6)-carboxyfluorescein diacetate succinimidyl ester (CFSE) (Sigma-Aldrich) and stimulated in vitro with 10 µg/mL of the synthetic peptides for 4 or 8 days. Proliferation of splenocytic CD4^+ and CD8^+ T cells was analyzed by flow cytometry (BD FACSCalibur) using PE-Cy5-labeled specific antibody against CD4 (eBioscience) or CD8 (eBioscience), respectively. Cell division index (CDI), a ratio of CFSE-diluted CD4^+ or CD8^+ T cells stimulated by peptide to CFSE-diluted unstimulated CD4^+ or CD8^+ T cells, was calculated as shown below; [drawing 1] […]
(§3) Figure 2 Epitope-specific CD4^+ and CD8^+ T-cell activation in peptide-immunized HLA-A*0201 transgenic mice. […] Proliferation of CD4^+ (A) or CD8^+ (B) lymphocytes in response to the different CD8 epitopes was analyzed by flow cytometry using anti-CD4 or CD8 antibodies conjugated with PE-Cy5. […]

splenocytic CD8+ T cells = experiment: CFSE proliferation of CD8+ T cells after in vitro peptide restimulation; type: cell-based, mouse; settings: mice immunized s.c. twice with 50 µg peptide in IFA; splenocytes restimulated with 10 µg/mL peptide for 8 days
Experimental: as §1, §2, §3

IL-13 = experiment: Lung IL-13 expression by real-time RT-PCR after RSV challenge; type: in vivo, mouse; settings: peptide in IFA s.c. twice, day 4 post challenge, normalized to GAPDH, six mice per group
Experimental: as §1
Lung RNA (5 µg) was mixed with 10 nmole random primers and 2 units of […] reverse transcriptase (Invitrogen) and incubated at 94°C for 10 minutes, 37°C for 30 minutes, and then at 4°C. The resulting cDNA was subjected to quantitative PCR analysis (The LightCycler® 480 Real-Time PCR system) with RSV N specific primer pairs, forward: 5′-[…]-3′ and reverse: 5′-[…]-3′. Expression of mouse GAPDH gene in the tested samples was detected as internal control by using specific primer pairs, forward: 5′-[…]-3′ and reverse: 5′-[…]-3′. The number of cycles (Ct) required for the amplification of the N gene and GAPDH was calculated. The relative expression of the N gene was calculated as followed: the individual Ct (RSV N) obtained from peptide- or vehicle-immunized lung was normalized by the respective Ct (GAPDH), and then [drawing 3] was divided by the mean of [drawing 4] . […]

YMLTNSELL [peptide 14, HLA-A*0201-restricted 9-mer synthetic peptide from F protein of RSV-B1 strain]
proliferation of CD4+ T cells (cell division index) (splenocytic CD4+ T cells): insignificant proliferation | proliferation of CD8+ T cells (cell division index) (splenocytic CD8+ T cells): ~3 fold | lung IL-13 expression vs vehicle (IL-13): normal expression
